Assay results published in paper PMC12903857.

Experiments:
Type in all cases: binding
[1] = molecular target: T1, 14-3-3σ/C-RAF259 (Homo sapiens, UniProt P31947); assay: Fluorescence anisotropy (FA) compound titration; details: 10 nM C-RAF259-FAM 10-mer, 5 μΜ 14-3-3σ, overnight; read-out: Compound titrations EC50 value C-RAF259
Experimental: (§1) In analogy to our previous work, two orthogonal assays were used for screening (Figure S2). […] Dose responses of compounds were performed in the absence and presence of the C-RAF259 phospho-peptide to distinguish between neutral binders and cooperative molecular glues. The experiment was performed as a time course, with measurements every 8 h, after an 1 h incubation. Additionally, the compounds were tested in a fluorescence anisotropy (FA) assay in the presence of the 5-carboxyfluorescein-(FAM)-labeled C-RAF259 peptide. […] The full dose–response data for all compounds are available in the SI (Tables S2–S5, Figures S5–S8, Figures S15–S18, Figures S25–S32, Figures S37–S39). The dose–response data from both assays were also visually compared in the form of bar graphs. […] For FA experiments, the EC50 values from the overnight measurement were calculated and plotted as bar graphs showing the […] log EC50 value (pEC50). Compounds acting as MGs were expected to show increases in both types of bar graphs.
(§2) transferred in the assay plates.
(§3) The reacton mixtures were incubated
(§4) dispensed in the assay plates.
(§5) incubaton at room temperature .

[2] = molecular target: T2, 14-3-3σ (Homo sapiens, UniProt P31947); assay: Intact mass spectrometry assay, apo (no peptide); parameters: full-length for mass spectrometry and fluorescence anisotropy assays; made in house; host or cells: E. coli Rosetta 2(DE3)pLysS, pPROEX HTb vector; details: 1 μM compound, 100 nM 14-3-3σ
T2 sequence (P31947 1-248): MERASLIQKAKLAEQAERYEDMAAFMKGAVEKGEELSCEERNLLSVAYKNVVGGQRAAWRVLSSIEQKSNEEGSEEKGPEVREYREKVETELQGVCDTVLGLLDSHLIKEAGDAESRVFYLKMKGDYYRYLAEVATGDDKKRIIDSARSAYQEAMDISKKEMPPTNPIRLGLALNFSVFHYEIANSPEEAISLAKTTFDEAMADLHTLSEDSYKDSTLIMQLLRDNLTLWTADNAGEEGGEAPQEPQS
Experimental: as §1, §2, §3, §4, §5

[3] = molecular target: T1, 14-3-3σ/C-RAF259; assay: Intact mass spectrometry assay with C-RAF259 phospho-peptide; parameters: full-length for mass spectrometry and fluorescence anisotropy assays; made in house; host or cells: E. coli Rosetta 2(DE3)pLysS (14-3-3σ); peptides from Elim Biopharmaceuticals; details: 1 μM compound, 100 nM 14-3-3σ, 18 µM peptide
Experimental: as §1, §2, §3, §4, §5

| SMILES | EC50 [1] | % bound, APO, 1h [2] | % bound, APO, 8h [2] | % bound, APO, 16h [2] | % bound, APO, 24h [2] | % bound, C-RAF259 (11mer), 1h [3] | % bound, C-RAF259 (11mer), 8h [3] | % bound, C-RAF259 (11mer), 16h [3] | % bound, C-RAF259 (11mer), 24h [3] |
| --- | --- | --- | --- | --- | --- | --- | --- | --- | --- |
| O=C(CCl)NCC1CCN(S(=O)(=O)Cc2ccccc2)CC1 [Compound 6] | > 1000 µM | 0% | 1% | 4.7% | 4.7% | 0.9% | 2.9% | 6.5% | 7% |
| O=C(CCl)NCC1CCN(S(=O)(=O)Cc2ccc(F)cc2)CC1 [Compound 7] | > 1000 µM | 1% | 1.9% | 1.9% | 2.9% | 1.5% | 1.5% | 2.5% | 4.7% |
| O=C(CCl)NCC1CCN(S(=O)(=O)Cc2ccc(Cl)cc2)CC1 [Compound 9] | > 1000 µM | 0% | 0% | 1.5% | 1.9% | 0% | 0.5% | 2.9% | 3.2% |
| O=C(CCl)NCC1CCN(S(=O)(=O)c2ccccc2F)CC1 [Compound 15] | 87 ± 9 µM | 0.5% | 1.9% | 2.4% | 2.4% | 3.3% | 8.2% | 13.7% | 23.3% |
| O=C(CCl)NCC1CCN(S(=O)(=O)c2cccc(F)c2)CC1 [Compound 16] | > 150 µM | 0% | 1% | 1.9% | 2.9% | 3.3% | 8.2% | 18% | 32.4% |
| COc1ccc(S(=O)(=O)N2CCC(CNC(=O)CCl)CC2)cc1 [Compound 25] | 57 ± 9 µM | 0.5% | 1.9% | 7.4% | 13.8% | 10.6% | 15% | 27.1% | 44.4% |
| O=C(CCl)NCC1CCN(S(=O)(=O)c2ccc3c(c2)OCO3)CC1 [Compound 26] | 26 ± 3 µM | 0% | 0% | 1.9% | 5.2% | 4.3% | 11.3% | 22.6% | 34.1% |
| O=C(CCl)NCC1CCN(S(=O)(=O)c2ccc(F)c(F)c2)CC1 [Compound 28] | 88 ± 2 µM | 1.9% | 4.7% | 6.5% | 9.1% | 4.3% | 15.2% | 27.5% | 40% |
| O=C(CCl)NCC1CCN(S(=O)(=O)C2CC3(C2)CC(F)(F)C3)CC1 [Compound 35] | > 1000 µM | 0% | 0% | 0% | 0.5% | 0% | 0% | 0% | 3.8% |
| O=C(CCl)N1CC2(C1)CN(S(=O)(=O)c1ccc(C(F)(F)F)c(F)c1)CCO2 [Compound 80] | 9 ± 2 µM | – | – | – | – | – | – | – | – |

Results, then the molecule that gave them:

| EC50 [1] | % bound, APO, 1h [2] | % bound, APO, 8h [2] | % bound, APO, 16h [2] | % bound, APO, 24h [2] | % bound, C-RAF259 (11mer), 1h [3] | % bound, C-RAF259 (11mer), 8h [3] | % bound, C-RAF259 (11mer), 16h [3] | % bound, C-RAF259 (11mer), 24h [3] | SMILES |
| --- | --- | --- | --- | --- | --- | --- | --- | --- | --- |
| 66 ± 4 µM | 4.7% | 4.7% | 4.7% | 4.7% | 4.7% | 5.6% | 5.7% | 13% | O=C(CCl)NCC1CCN(S(=O)(=O)c2ccccc2)CC1 [Compound 10] |
| > 1000 µM | 0% | 1.5% | 2.5% | 4.3% | 0.9% | 2.9% | 5.6% | 14.1% | O=C(CCl)NCCCC1CCN(S(=O)(=O)c2ccc(Cl)cc2)CC1 [Compound 13] |
| 82 ± 6 µM | 1.9% | 2.5% | 3% | 15% | 4.7% | 7.4% | 9.9% | 20.9% | O=C(CCl)NCC1CCN(S(=O)(=O)c2ccc(Cl)nc2)CC1 [Compound 14] |
| > 150 µM | 0% | 0% | 0.5% | 0.9% | 1.9% | 3.4% | 6.5% | 12.3% | O=C(CCl)NCC1CCN(S(=O)(=O)c2cccc(C(F)(F)F)c2)CC1 [Compound 17] |
| > 150 µM | 0% | 0.5% | 1.5% | 2.9% | 4.7% | 12.1% | 23.9% | 42.3% | N#Cc1ccc(S(=O)(=O)N2CCC(CNC(=O)CCl)CC2)cc1 [Compound 20] |
| > 150 µM | 1% | – | 3.8% | 5.2% | 6.9% | 14.1% | 27.5% | 50.3% | O=C(CCl)NCC1CCN(S(=O)(=O)c2ccc(F)cc2F)CC1 [Compound 27] |
| 4 ± 1 µM | – | – | – | – | – | – | – | – | O=C(CCl)NCC1CCN(S(=O)(=O)c2ccc(C(F)(F)F)c(F)c2)CC1 [Compound 32] |
| > 1000 µM | 0% | 0.5% | 0.9% | 0.9% | 0.5% | 0.9% | 0.9% | 3.8% | O=C(CCl)NCC1CCN(S(=O)(=O)C2CCC3(CC2)CC3(F)F)CC1 (stereo not drawn) [Compound 34] |
| 5 ± 1 µM | – | – | – | – | – | – | – | – | O=C(CCl)NCC1CCN(S(=O)(=O)c2ccc(Br)c(F)c2)CC1 [Compound 37] |
| 47 ± 4 µM | 1.9% | 5.2% | 13.8% | 15.9% | 11.1% | 32.4% | 53.8% | 86.6% | O=C(CCl)N1CC2(CCN(S(=O)(=O)c3ccc(Br)c(F)c3)CC2)C1 [Compound 49] |
| 5 ± 2 µM | – | – | – | – | – | – | – | – | O=C(CCl)N1CC2(CCCN(S(=O)(=O)c3ccc(Br)c(F)c3)C2)C1 [Compound 83] |
